Experimental data from ChEMBL document CHEMBL5338790, “Discovery of Subcellular-Targeted Aza-BODIPY Photosensitizers for Efficient Photodynamic Antitumor Therapy” (J Med Chem, 2023).
pIC50: −log10 of the molar value. Active and inactive are the calls of the source. The calls are words filed in the database; no cut-off is given here.

Columns and labels:
[1] = Cytotoxicity against human HepG2 cells assessed as inhibition of cell viability under dark condition incubated for 27 hrs by CCK8 assay; type: toxicity, cell-based
HeLa [2] = experiment: Induction of apoptosis in human HeLa cells assessed as late apoptotic cells at 100 nM incubated for 3 hrs with photo-irradiation at 54 J/cm2 by Annexin V-FITC/PI staining based flow cytometry relative to control; type: functional
[3] = Toxicity in Balb/C nu/nu mouse xenografted with human HeLa cells assessed as increase in body weight at 2.5 umol/kg, iv with photo-irradiation at 30 J/cm2 after 1 hr of compound administration measured for 24 days; type: organism-based; settings: in vivo, 576 h, dose 2.5 µmol/kg, time 24 day
HeLa [4] = experiment: Induction of apoptosis in human HeLa cells assessed as increase in percentage of apoptosis/necrosis at 100 nM incubated for 3 hrs with photo-irradiation at 54 J/cm2 by Annexin V-FITC/PI staining based flow cytometry relative to control; type: functional
[5] = Drug distribution in lungs of Balb/C nu/nu mouse xenografted with human HeLa cells at 2.5 umol/kg, iv measured for 24 hr by IVIS imaging analysis; type: ADME, organism-based, Lung; settings: in vivo, dose 2.5 µmol/kg
[6] = Drug uptake in human HeLa cells at 5 uM by confocal scanning microscopy; type: ADME, cell-based; settings: 3 h, TDE = time-dependent effect
[7] = Cytotoxicity against HUVEC cells assessed as inhibition of cell viability under dark condition incubated for 27 hrs by CCK8 assay; type: toxicity, cell-based; settings: human
[8] = Drug distribution in kidneys of Balb/C nu/nu mouse xenografted with human HeLa cells at 2.5 umol/kg, iv measured for 1 hr by IVIS imaging analysis; type: ADME, organism-based, Kidney; settings: in vivo, dose 2.5 µmol/kg
HeLa [9] = experiment: Induction of apoptosis in human HeLa cells assessed as necrotic cells at 100 nM incubated for 3 hrs by Annexin V-FITC/PI staining based flow cytometry relative to control; type: toxicity, cell-based; settings: 0.1 µM
[10] = Toxicity in Balb/C nu/nu mouse xenografted with human HeLa cells assessed as change in heart histology at 2.5 umol/kg, iv with photo-irradiation at 30 J/cm2 after 1 hr of compound administration measured after 24 days by H and E staining based analysis; type: organism-based; settings: in vivo, 576 h, dose 2.5 µmol/kg, time 24 day
[11] = Drug accumulation in tumor of Balb/C nu/nu mouse xenografted with human HeLa cells at 2.5 umol/kg, iv measured for 3 hrs by IVIS imaging analysis; type: ADME, organism-based, Neoplasm; settings: in vivo, dose 2.5 µmol/kg
HeLa [12] = experiment: Induction of apoptosis in human HeLa cells assessed as necrotic cells at 50 nM incubated for 3 hrs with photo-irradiation at 54 J/cm2 by Annexin V-FITC/PI staining based flow cytometry relative to control; type: functional
[13] = Drug distribution in heart of Balb/C nu/nu mouse xenografted with human HeLa cells at 2.5 umol/kg, iv measured for 1 hr by IVIS imaging analysis; type: ADME, organism-based; settings: in vivo, dose 2.5 µmol/kg
[14] = Drug distribution in lungs of Balb/C nu/nu mouse xenografted with human HeLa cells at 2.5 umol/kg, iv measured for 1 hr by IVIS imaging analysis; type: ADME, organism-based, Lung; settings: in vivo, dose 2.5 µmol/kg
HeLa [15] = experiment: Induction of apoptosis in human HeLa cells assessed as early apoptotic cells at 100 nM incubated for 3 hrs by Annexin V-FITC/PI staining based flow cytometry relative to control; type: toxicity, cell-based; settings: 0.1 µM
HeLa [16] = experiment: Induction of apoptosis in human HeLa cells assessed as late apoptotic cells at 12.5 nM incubated for 3 hrs with photo-irradiation at 54 J/cm2 by Annexin V-FITC/PI staining based flow cytometry relative to control; type: functional
[17] = Drug distribution in liver of Balb/C nu/nu mouse xenografted with human HeLa cells at 2.5 umol/kg, iv measured for 24 hr by IVIS imaging analysis; type: ADME, organism-based; settings: in vivo, dose 2.5 µmol/kg
HeLa [18] = experiment: Antitumor activity against human HeLa cells xenografted in Balb/C nu/nu mouse assessed as tumor growth inhibition at 2.5 umol/kg, iv with photo-irradiation at 30 J/cm2 after 1 hr of compound administration measured for 24 days; type: functional, organism-based; settings: dose 2.5 µmol/kg, time 24.0 day
[19] = Drug localization in lysosome of human HeLa cells at 5 uM incubated for 30 mins by Lyso-tracker Green DND-26 dye based confocal scanning microscopic analysis; type: ADME, subcellular; settings: 0.5 h
HeLa [20] = experiment: Disruption of lysosomes in human HeLa cells at 100 nM incubated for 3 hrs by AO staining based confocal scanning microscopy; type: functional, cell-based
HeLa [21] = experiment: Induction of apoptosis in human HeLa cells assessed as viable cells at 100 nM incubated for 3 hrs by Annexin V-FITC/PI staining based flow cytometry relative to control; type: toxicity, cell-based; settings: read-out: Activity
HepG2 = experiment: Photodynamic cytotoxicity against human HepG2 cells assessed as inhibition of cell viability incubated for 3 hrs followed by photo-irradiation at 54 J/cm2 measured after 24 hrs by CCK8 assay; type: functional, cell-based; settings: HepG2, light or radiation study
HeLa [22] = experiment: Induction of apoptosis in human HeLa cells assessed as early apoptotic cells at 50 nM incubated for 3 hrs with photo-irradiation at 54 J/cm2 by Annexin V-FITC/PI staining based flow cytometry relative to control; type: functional
[23] = Drug localization in mitochondria of human HeLa cells at 5 uM incubated for 30 mins by MitoTracker Green FM dye based confocal scanning microscopic analysis; type: ADME; settings: 0.5 h
HeLa [24] = experiment: Photodynamic cytotoxicity against human HeLa cells assessed as inhibition of cell viability incubated for 3 hrs followed by photo-irradiation at 54 J/cm2 measured after 24 hrs by CCK8 assay; type: functional, cell-based; settings: light or radiation study
[25] = Drug distribution in kidneys of Balb/C nu/nu mouse xenografted with human HeLa cells at 2.5 umol/kg, iv measured for 24 hr by IVIS imaging analysis; type: ADME, organism-based, Kidney; settings: in vivo, dose 2.5 µmol/kg
[26] = Drug distribution in tumor of Balb/C nu/nu mouse xenografted with human HeLa cells at 2.5 umol/kg, iv measured for 1 hr by IVIS imaging analysis; type: ADME, organism-based, Neoplasm; settings: in vivo, dose 2.5 µmol/kg
HeLa [27] = experiment: Induction of apoptosis in human HeLa cells assessed as necrotic cells at 12.5 nM incubated for 3 hrs with photo-irradiation at 54 J/cm2 by Annexin V-FITC/PI staining based flow cytometry relative to control; type: functional
HUVEC = experiment: Photodynamic cytotoxicity against HUVEC cells assessed as inhibition of cell viability incubated for 3 hrs followed by photo-irradiation at 54 J/cm2 measured after 24 hrs by CCK8 assay; type: functional, cell-based; settings: Homo sapiens, light or radiation study
HeLa [28] = experiment: Induction of apoptosis in human HeLa cells assessed as early apoptotic cells at 25 nM incubated for 3 hrs with photo-irradiation at 54 J/cm2 by Annexin V-FITC/PI staining based flow cytometry relative to control; type: functional
HeLa [29] = experiment: Induction of apoptosis in human HeLa cells assessed as early apoptotic cells at 100 nM incubated for 3 hrs with photo-irradiation at 54 J/cm2 by Annexin V-FITC/PI staining based flow cytometry relative to control; type: functional
[30] = Drug uptake in human HeLa cells at 5 uM incubated for 3 hrs by confocal scanning microscopy; type: ADME, cell-based
[31] = Toxicity in Balb/C nu/nu mouse xenografted with human HeLa cells assessed as drug tolerance at 2.5 umol/kg, iv with photo-irradiation at 30 J/cm2 after 1 hr of compound administration measured for 24 days; type: organism-based; settings: in vivo, 576 h, dose 2.5 µmol/kg, time 24 day
HeLa [32] = experiment: Induction of apoptosis in human HeLa cells assessed as late apoptotic cells at 100 nM incubated for 3 hrs by Annexin V-FITC/PI staining based flow cytometry relative to control; type: toxicity, cell-based; settings: 0.1 µM

- Drug uptake [5]: Not Active
- Drug uptake [6]: Tde
- Drug uptake [8]: Active
- Drug uptake [11]: Active
- Drug uptake [13]: Active
- Drug uptake [14]: Active
- Drug uptake [17]: Not Active
- Drug uptake [19]: Active
- Drug uptake [23]: Not Active
- Drug uptake [25]: Not Active
- Drug uptake [26]: Active
- Drug uptake [30]: Active
SMILES: COc1ccc2c(c1)CCc1c(-c3ccccc3)c3n(c1-2)[B-](F)(F)[N+]1=C(c2ccc(OCC(=O)NCCCN4CCOCC4)cc2)C(I)=C(c2ccccc2)C1=N3
- IC50 at 27 h [1]: > 50000 nM
- Activity (HeLa [2]): 16.6%
- Activity [3]: Non-Toxic
- Activity (HeLa [4]): 64.6%
- IC50 at 27 h [7]: > 50000 nM
- Activity (HeLa [9]): 1.04%
- Activity [10]: Non-Toxic
- Activity (HeLa [12]): 2.08%
- Activity (HeLa [15]): 1.52%
- Activity (HeLa [16]): 5.57%
- Activity (HeLa [18]): Active
- Activity (HeLa [20]): inactive
- viability at 0.1 µM (HeLa [21]): 91.7%
- pIC50 (HepG2): 8.21
- Activity (HeLa [22]): 58.93%
- pIC50 (HeLa [24]): 8.68
- Activity (HeLa [27]): 1.07%
- pIC50 (HUVEC): 7.92
- Activity (HeLa [28]): 36.45%
- Activity (HeLa [29]): 73.1%
- Activity [31]: Non-Toxic
- Activity (HeLa [32]): 5.79%
